# Results reported in ChEMBL document CHEMBL3797190, “Development of 3,5-Dinitrobenzylsulfanyl-1,3,4-oxadiazoles and Thiadiazoles as Selective Antitubercular Agents Active Against Replicating and Nonreplicating Mycobacterium tuberculosis” (J Med Chem, 2016).
# Legend:
# [1] = system: Salmonella typhimurium; test: Mutagenic activity in Salmonella typhimurium TA98 assessed as reverse mutation at 30 uM by Ames test; type: toxicity, organism-based; conditions: salmonella enterica subsp. enterica serovar typhimurium
# [2] = system: Mycobacterium tuberculosis; test: Antimycobacterial activity against Mycobacterium tuberculosis CNCTC My 331/88 after 14 days by microdilution method; type: functional; conditions: CNCTC My 331/88, 336 h
# [3] = system: Mycobacterium avium; test: Antimycobacterial activity against Mycobacterium avium CNCTC My 330/88 after 14 days by microdilution method; type: functional; conditions: CNCTC My 330/88, 336 h
# [4] = system: Mycobacterium kansasii; test: Antimycobacterial activity against Mycobacterium kansasii CNCTC My 235/80 after 14 days by microdilution method; type: functional; conditions: CNCTC My 235/80, 336 h
# [5] = system: Mycobacterium kansasii; test: Antimycobacterial activity against Mycobacterium kansasii CNCTC My 6509/96 after 14 days by microdilution method; type: functional; conditions: CNCTC My 6509/96, 336 h
# [6] = system: Mycobacterium tuberculosis; test: Antimycobacterial activity against Mycobacterium tuberculosis CNCTC My 331/88 after 21 days by microdilution method; type: functional; conditions: CNCTC My 331/88, 504 h
# [7] = system: Mycobacterium avium; test: Antimycobacterial activity against Mycobacterium avium CNCTC My 330/88 after 21 days by microdilution method; type: functional; conditions: CNCTC My 330/88, 504 h
# [8] = system: Mycobacterium kansasii; test: Antimycobacterial activity against Mycobacterium kansasii CNCTC My 235/80 after 21 days by microdilution method; type: functional; conditions: CNCTC My 235/80, 504 h
# [9] = system: Mycobacterium kansasii; test: Antimycobacterial activity against Mycobacterium kansasii CNCTC My 6509/96 after 21 days by microdilution method; type: functional; conditions: CNCTC My 6509/96, 504 h
# [10] = system: Mycobacterium kansasii; test: Antimycobacterial activity against Mycobacterium kansasii CNCTC My 235/80 after 7 days by microdilution method; type: functional; conditions: CNCTC My 235/80, 168 h
# [11] = system: Mycobacterium kansasii; test: Antimycobacterial activity against Mycobacterium kansasii CNCTC My 6509/96 after 7 days by microdilution method; type: functional; conditions: CNCTC My 6509/96, 168 h
# [12] = Cytotoxicity against human HuH7 cells assessed as cell viability after 24 hrs by MTS assay; type: cell-based; conditions: Huh-7, 24 h
# [13] = system: HeLa; test: Cytotoxicity against human HeLa cells assessed as cell viability after 24 hrs by MTS assay; type: cell-based
# [14] = system: HeLa; test: Cytotoxicity against human HeLa cells assessed as cell viability after 48 hrs by MTS assay; type: cell-based
# [15] = Cytotoxicity against MDCK2-MDR1 cells assessed as cell viability after 24 hrs by MTS assay; type: ADME, cell-based; conditions: Canis lupus familiaris, MDCK-II
# [16] = Cytotoxicity against human HuH7 cells assessed as cell viability at 20 uM after 24 hrs by MTS assay; type: cell-based, Huh-7; conditions: read-out: Activity
# [17] = Cytotoxicity against human HuH7 cells assessed as cell viability at 20 uM after 48 hrs by MTS assay; type: cell-based, Huh-7; conditions: read-out: Activity
# [18] = Cytotoxicity against human HeLa cells assessed as cell viability at 20 uM after 24 hrs by MTS assay; type: cell-based; conditions: read-out: Activity
# [19] = Cytotoxicity against human HeLa cells assessed as cell viability at 20 uM after 48 hrs by MTS assay; type: cell-based; conditions: read-out: Activity
# [20] = Cytotoxicity against MDCK2-MDR1 cells assessed as cell viability at 20 uM after 24 hrs by MTS assay; type: ADME, cell-based, Canis lupus familiaris, MDCK-II; conditions: dog, read-out: Activity
# [21] = Cytotoxicity against MDCK2-MDR1 cells assessed as cell viability at 20 uM after 48 hrs by MTS assay; type: ADME, cell-based, Canis lupus familiaris, MDCK-II; conditions: dog, read-out: Activity
# [22] = system: Salmonella typhimurium; test: Mutagenic activity in Salmonella typhimurium TA100 assessed as reverse mutation at 30 uM by Ames test; type: toxicity, organism-based; conditions: salmonella enterica subsp. enterica serovar typhimurium
# [23] = system: Candida albicans; test: Antifungal activity against Candida albicans ATCC 44859 after 24 to 48 hrs by broth microdilution method; type: functional
# [24] = system: Candida tropicalis; test: Antifungal activity against Candida tropicalis 156 after 24 to 48 hrs by broth microdilution method; type: functional
# [25] = system: Pichia kudriavzevii; test: Antifungal activity against Candida krusei E28 after 24 to 48 hrs by broth microdilution method; type: functional
# [26] = system: Nakaseomyces glabratus; test: Antifungal activity against Candida glabrata 20/I after 24 to 48 hrs by broth microdilution method; type: functional
# [27] = system: Trichosporon asahii; test: Antifungal activity against Trichosporon asahii 1188 after 24 to 48 hrs by broth microdilution method; type: functional
# [28] = system: Aspergillus fumigatus; test: Antifungal activity against Aspergillus fumigatus 231 after 24 to 48 hrs by broth microdilution method; type: functional
# [29] = system: Lichtheimia corymbifera; test: Antifungal activity against Absidia corymbifera 272 after 24 to 48 hrs by broth microdilution method; type: functional
# [30] = system: Trichophyton mentagrophytes; test: Antifungal activity against Trichophyton mentagrophytes 445 after 72 to 120 hrs by broth microdilution method; type: functional
# [31] = system: Staphylococcus aureus; test: Antibacterial activity against Staphylococcus aureus ATCC 6538 after 24 to 48 hrs by broth microdilution method; type: functional
# [32] = system: Staphylococcus aureus; test: Antibacterial activity against methicillin-resistant Staphylococcus aureus H 5996/08 after 24 to 48 hrs by broth microdilution method; type: functional
# [33] = system: Staphylococcus epidermidis; test: Antibacterial activity against Staphylococcus epidermidis H 6966/08 after 24 to 48 hrs by broth microdilution method; type: functional
# [34] = system: Enterococcus faecalis; test: Antibacterial activity against Enterococcus faecalis J 14365/08 after 24 to 48 hrs by broth microdilution method; type: functional
# [35] = system: Escherichia coli; test: Antibacterial activity against Escherichia coli ATCC 8739 after 24 to 48 hrs by broth microdilution method; type: functional
# [36] = system: Klebsiella pneumoniae; test: Antibacterial activity against Klebsiella pneumoniae D 11750/08 after 24 to 48 hrs by broth microdilution method; type: functional
# [37] = system: Klebsiella pneumoniae; test: Antibacterial activity against ESBL producing Klebsiella pneumoniae J 14368/08 after 24 to 48 hrs by broth microdilution method; type: functional
# [38] = system: Pseudomonas aeruginosa; test: Antibacterial activity against Pseudomonas aeruginosa ATCC 9027 after 24 to 48 hrs by broth microdilution method; type: functional
# [39] = Cytotoxicity against MDCK2-MDR1 cells assessed as cell viability after 48 hrs by MTS assay; type: ADME, cell-based; conditions: Canis lupus familiaris, MDCK-II
# [40] = Cytotoxicity against human HuH7 cells assessed as cell viability after 48 hrs by MTS assay; type: cell-based; conditions: Huh-7, 48 h
Compound,MIC99 [2] [µM],MIC99 [3] [µM],MIC99 [4] [µM],MIC99 [5] [µM],MIC99 [6] [µM],MIC99 [7] [µM],MIC99 [8] [µM],MIC99 [9] [µM],MIC99 [10] [µM],MIC99 [11] [µM],IC50 [12] [µM],IC50 [13] [µM],IC50 [14] [µM],IC50 [15] [µM],"viability at 24 h, 20 µM [16] [%]","viability at 48 h, 20 µM [17] [%]","viability at 24 h, 20 µM [18] [%]","viability at 48 h, 20 µM [19] [%]","viability at 24 h, 20 µM [20] [%]","viability at 48 h, 20 µM [21] [%]",also measured
O=[N+]([O-])c1ccc2c(c1)Cc1ccccc1-2 [2-NITROFLUORENE],–,–,–,–,–,–,–,–,–,–,–,–,–,–,–,–,–,–,–,–,Activity [1]: Toxic
COc1cccc(-c2nnc(SCc3cc([N+](=O)[O-])cc([N+](=O)[O-])c3)o2)c1,0.125,16,0.25,0.5,0.125,16,0.5,1,0.125,0.125,> 20,> 20,4.1,> 20,89.6,47,74.2,16.4,105,10.5,Activity [22]: Non-toxic; Activity [1]: Non-toxic; MIC80 [23]: > 125 µM; MIC80 [24]: > 125 µM; MIC80 [25]: > 125 µM; MIC80 [26]: > 125 µM; MIC80 [27]: > 125 µM; MIC50 [28]: > 125 µM; MIC50 [29]: > 125 µM; MIC50 [30]: > 125 µM; MIC95 [31]: > 125 µM; MIC95 [32]: > 125 µM; MIC95 [33]: > 125 µM; MIC95 [34]: > 125 µM; MIC95 [35]: > 125 µM; MIC95 [36]: > 125 µM; MIC95 [37]: > 125 µM; MIC95 [38]: > 125 µM
O=[N+]([O-])c1cc(CSc2nnc(-c3cccc(Cl)c3)o2)cc([N+](=O)[O-])c1,≤ 0.03,16,0.25,0.5,0.06,16,0.5,1,0.125,0.125,> 20,> 20,–,> 20,97.9,45.9,81.9,34.6,93.3,57.9,IC50 [39]: > 20 µM; Activity [22]: Non-toxic; Activity [1]: Non-toxic
O=[N+]([O-])c1ccc(CSc2nnc(-c3ccccc3)o2)c([N+](=O)[O-])c1,2,> 16,8,8,4,> 16,16,8,4,2,> 20,> 20,> 20,> 20,99.5,92.8,97.7,113,69.6,73.3,IC50 [40]: > 20 µM; IC50 [39]: > 20 µM; Activity [1]: Toxic; MIC80 [23]: > 125 µM; MIC80 [24]: > 125 µM; MIC80 [25]: > 125 µM; MIC80 [26]: > 125 µM; MIC80 [27]: > 125 µM; MIC50 [28]: > 125 µM; MIC50 [29]: > 125 µM; MIC50 [30]: > 125 µM; MIC95 [31]: > 125 µM; MIC95 [32]: > 125 µM; MIC95 [33]: > 125 µM; MIC95 [34]: > 125 µM; MIC95 [35]: > 125 µM; MIC95 [36]: > 125 µM; MIC95 [37]: > 125 µM; MIC95 [38]: > 125 µM
[N-]=[N+]=[N-].[Na+] [SODIUM AZIDE],–,–,–,–,–,–,–,–,–,–,–,–,–,–,–,–,–,–,–,–,Activity [22]: Toxic
O=[N+]([O-])c1cc(CSc2nnc(-c3cccc(Cl)c3)s2)cc([N+](=O)[O-])c1,0.125,8,1,0.5,0.125,16,1,0.5,0.25,0.25,> 20,> 20,2.6,> 20,90.7,32.8,78.6,16.8,108,48.6,–
COc1ccc(-c2nnc(SCc3cc([N+](=O)[O-])cc([N+](=O)[O-])c3)o2)cc1,–,–,–,–,–,–,–,0.5,–,–,> 20,> 20,–,> 20,91.6,34.1,83.9,37.3,80.6,14.5,IC50 [39]: 10.6 µM
COc1ccc(-c2nnc(SCc3cc([N+](=O)[O-])cc([N+](=O)[O-])c3)s2)cc1,0.125,8,1,1,0.125,16,1,1,0.25,0.25,> 20,> 20,4.4,> 20,95.4,84.2,88,27.1,101,60,IC50 [40]: > 20 µM; IC50 [39]: > 20 µM; MIC80 [23]: > 125 µM; MIC80 [24]: > 125 µM; MIC80 [25]: > 125 µM; MIC80 [26]: > 125 µM; MIC80 [27]: > 125 µM; MIC50 [28]: > 125 µM; MIC50 [29]: > 125 µM; MIC50 [30]: > 125 µM; MIC95 [31]: > 125 µM; MIC95 [32]: > 125 µM; MIC95 [33]: > 125 µM; MIC95 [34]: > 125 µM; MIC95 [35]: > 125 µM; MIC95 [36]: > 125 µM; MIC95 [37]: > 125 µM; MIC95 [38]: > 125 µM
COc1ccc(-c2nnc(SCc3ccc([N+](=O)[O-])cc3[N+](=O)[O-])o2)cc1,0.5,4,8,8,1,4,16,16,2,2,> 20,> 20,> 20,> 20,85.1,77,89.9,106,87.9,78.5,IC50 [40]: > 20 µM; IC50 [39]: > 20 µM; MIC80 [23]: > 125 µM; MIC80 [24]: > 125 µM; MIC80 [25]: > 125 µM; MIC80 [26]: > 125 µM; MIC80 [27]: > 125 µM; MIC50 [28]: > 125 µM; MIC50 [29]: > 125 µM; MIC50 [30]: > 125 µM; MIC95 [31]: > 125 µM; MIC95 [32]: > 125 µM; MIC95 [33]: > 125 µM; MIC95 [34]: > 125 µM; MIC95 [35]: > 125 µM; MIC95 [36]: > 125 µM; MIC95 [37]: > 125 µM; MIC95 [38]: > 125 µM
O=[N+]([O-])c1cc(CSc2nnc(-c3ccccc3)s2)cc([N+](=O)[O-])c1,0.06,8,0.5,0.5,0.125,16,1,1,0.25,0.25,> 20,> 20,2.4,> 20,84.3,36.3,78.5,15.9,97.8,7.3,IC50 [39]: 3.1 µM; Activity [22]: Non-toxic; Activity [1]: Non-toxic
